From BindingDB's records for doi:10.1021/acschembio.7b00062 (Philipps-Universität Marburg, 2017)

Target: Aldo-keto reductase family 1 member B1 (Homo sapiens, UniProt P15121)
Assay: SPR Assay
Details: pH 8.5
Description: The anti-His antibody (His Capture Kit, GE Healthcare) was immobilized on sensor chip CM5 (GE Healthcare), in a Biacore T200 or Biacore S200 instrument, to ∼10000 resonance units (RU) using a standard amine coupling procedure (Amine Coupling Kit, GE Healthcare). His-tagged aldose reductase (ALR2), at a concentration of 100 μg/mL, was captured on the anti-His antibody using dual injection consisting of a 3 min injection of protein followed by a 100 s activation with a mixture (1:1) of 0.2 M N-ethyl-N-(dimethylamino)propylcarbodiimide (EDC) and 50 mM N-hydroxysuccinimide (NHS), and final blocking with an injection of 1.0 Methanolamine (pH 8.5) for 100 s. […] For the interaction analysis, the compound concentrations ranged from 3 to 10000 nM with a 5-fold dilution step, using a single-cycle kinetic approach with three or five concentrations or injections per cycle.

| SMILES | Kd [nM] |
| --- | --- |
| O=C(O)COc1cc(Cl)ccc1C(=O)NCc1cccc([N+](=O)[O-])c1 [2-(5-chloro-2-{[(3-nitrophenyl)methyl]carbamoyl}phenoxy)acetic acid] | 14 |
| NC(=O)[C@@H]1C[C@]2(NC(=O)NC2=O)c2cc(F)ccc2O1 [(2S,4S)-6-fluoro-2,5-dioxo-2,3-dihydrospiro[chromene-4,4-imidazolidine]-2-carboxamide] | 16 |
| O=C(O)COc1cc(F)ccc1C(=O)Nc1cccc([N+](=O)[O-])c1 [ALR2 inhibitor, 8] | 23 |
| O=C(O)COc1ccc(-c2ccccc2)cc1C(=O)NCc1cccc([N+](=O)[O-])c1 [ALR2 inhibitor, 11] | 15 |
